Experiments:
PrP^Sc [1] = target: PrP^Sc (Mesocricetus auratus, UniProt P04273); parameters: species or system Syrian hamster; settings: Hyper-hamster PrPSc pellet
PrP^Sc [2] = target: PrP^Sc (Mus musculus, UniProt P04925); settings: FVB-RML mouse PrPSc pellet
Chain of PrP^Sc (Mus musculus, UniProt P04925) (P04925 23-230 limits assumed): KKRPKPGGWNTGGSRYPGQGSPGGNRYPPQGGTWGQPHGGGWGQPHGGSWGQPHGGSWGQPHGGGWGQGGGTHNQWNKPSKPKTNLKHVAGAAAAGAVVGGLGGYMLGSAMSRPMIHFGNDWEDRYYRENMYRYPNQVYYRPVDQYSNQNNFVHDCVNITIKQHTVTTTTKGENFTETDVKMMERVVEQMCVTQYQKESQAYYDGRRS

Chain of PrP^Sc (Mesocricetus auratus, UniProt P04273) (P04273 23-231 limits assumed): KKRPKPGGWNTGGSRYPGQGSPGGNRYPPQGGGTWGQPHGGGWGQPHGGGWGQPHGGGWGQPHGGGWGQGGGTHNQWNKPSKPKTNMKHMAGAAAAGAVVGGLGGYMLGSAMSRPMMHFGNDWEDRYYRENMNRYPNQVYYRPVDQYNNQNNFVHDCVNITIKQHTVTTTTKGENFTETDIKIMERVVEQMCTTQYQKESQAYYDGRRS

Question: Which “calculated amount of lipid: DG” value (PrP^Sc [1]) does the source give for `CCCCCCCCCCCC(=O)N(C)CC(=O)[O-].[Na+]` [Sarkosyl] here?
Answer: The value was 0.

Question: And the “calculated amount of lipid: FA (free fatty acid)” value (PrP^Sc [1])?
Answer: Its value is 0.

Question: And the “calculated amount of lipid: FC (free cholesterol)” value (PrP^Sc [1])?
Answer: Its value is 24.35.

Question: And the “calculated amount of lipid: PC (phosphatidylcholine)” value (PrP^Sc [1])?
Answer: The value was 21.46.

Question: And the “calculated amount of lipid: PE (phosphatidylethanolamine)” value (PrP^Sc [1])?
Answer: Its value is 8.57.

Question: And the “calculated amount of lipid: PI (phosphatidylinositol)” value (PrP^Sc [1])?
Answer: Its value is 0.

Question: What about the “calculated amount of lipid: PS (phosphatidylserine)” value (PrP^Sc [1]) of the same compound?
Answer: Its value is 2.23.

Question: And the “calculated amount of lipid: SM (sphingomyelin)” value (PrP^Sc [1])?
Answer: The value was 3.12.

Question: What about the “calculated amount of lipid: CE (cholesterol esters)” value (PrP^Sc [2]) of the same compound?
Answer: The value was 3.54.

Question: What about the “calculated amount of lipid: DG” value (PrP^Sc [2]) of the same compound?
Answer: The value was 0.

Question: What about the “calculated amount of lipid: FA (free fatty acid)” value (PrP^Sc [2]) of the same compound?
Answer: Its value is 0.

Question: What about the “calculated amount of lipid: FC (free cholesterol)” value (PrP^Sc [2]) of the same compound?
Answer: The value was 31.17.

Question: What about the “calculated amount of lipid: PC (phosphatidylcholine)” value (PrP^Sc [2]) of the same compound?
Answer: The value was 16.80.

Question: And the “calculated amount of lipid: PE (phosphatidylethanolamine)” value (PrP^Sc [2])?
Answer: The value was 21.83.

Question: What about the “calculated amount of lipid: PI (phosphatidylinositol)” value (PrP^Sc [2]) of the same compound?
Answer: Its value is 1.92.

Question: And the “calculated amount of lipid: PS (phosphatidylserine)” value (PrP^Sc [2])?
Answer: Its value is 8.05.

Question: And the “calculated amount of lipid: SM (sphingomyelin)” value (PrP^Sc [2])?
Answer: Its value is 1.58.

Question: What about the “calculated amount of lipid: TG (triglycerides)” value (PrP^Sc [2]) of the same compound?
Answer: Its value is 4.29.
